Measured values published in ChEMBL document CHEMBL1153704, “Imidazo[1,2-a]pyrazine diaryl ureas: inhibitors of the receptor tyrosine kinase EphB4” (Bioorg Med Chem Lett, 2009).
pIC50: −log10 of the molar value. One block for each compound: values may come before it.

What was measured:
[1] = biological target: T1, Ephrin type-B receptor 4 (Homo sapiens) (UniProt P54760); assay: Inhibition of EphB4 at 10 uM after 1 hr
T1 sequence (whole entry): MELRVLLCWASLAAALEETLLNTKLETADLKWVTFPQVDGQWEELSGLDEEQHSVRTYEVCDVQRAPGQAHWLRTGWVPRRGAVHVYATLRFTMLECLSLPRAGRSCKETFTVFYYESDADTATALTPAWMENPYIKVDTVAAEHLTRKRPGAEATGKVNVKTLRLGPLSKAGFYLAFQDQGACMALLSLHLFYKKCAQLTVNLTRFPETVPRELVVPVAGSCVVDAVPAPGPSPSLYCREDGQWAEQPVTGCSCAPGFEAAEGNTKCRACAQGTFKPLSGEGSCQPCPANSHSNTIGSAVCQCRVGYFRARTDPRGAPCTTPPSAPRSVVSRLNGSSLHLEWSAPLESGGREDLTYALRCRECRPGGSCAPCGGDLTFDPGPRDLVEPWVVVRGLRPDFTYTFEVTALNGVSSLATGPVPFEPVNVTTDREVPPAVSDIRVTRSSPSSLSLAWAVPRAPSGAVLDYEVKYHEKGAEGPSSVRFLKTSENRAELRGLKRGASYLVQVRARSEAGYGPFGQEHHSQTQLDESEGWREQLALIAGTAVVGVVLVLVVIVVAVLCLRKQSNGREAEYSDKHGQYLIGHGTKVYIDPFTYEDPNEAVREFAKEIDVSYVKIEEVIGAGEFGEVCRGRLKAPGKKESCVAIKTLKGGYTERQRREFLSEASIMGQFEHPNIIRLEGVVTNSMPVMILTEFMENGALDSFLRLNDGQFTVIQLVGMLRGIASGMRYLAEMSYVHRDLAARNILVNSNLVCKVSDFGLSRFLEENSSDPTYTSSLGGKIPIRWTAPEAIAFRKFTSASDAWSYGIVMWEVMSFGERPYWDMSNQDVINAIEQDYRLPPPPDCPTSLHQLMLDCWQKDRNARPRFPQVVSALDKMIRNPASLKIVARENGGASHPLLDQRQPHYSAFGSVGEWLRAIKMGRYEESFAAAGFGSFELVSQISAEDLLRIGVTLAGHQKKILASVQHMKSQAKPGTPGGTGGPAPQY

Angiopoietin-1 receptor [2] = biological target: T2, Angiopoietin-1 receptor (Homo sapiens, UniProt Q02763); assay: Inhibition of Tie2 after 1 hr
Angiopoietin-1 receptor [3] = biological target: T2, Angiopoietin-1 receptor; assay: Inhibition of Tie2 autophosphorylation by cell based assay
Ephrin type-B receptor 4 = biological target: T3, Ephrin type-B receptor 4 (Homo sapiens, UniProt P54760); assay: Inhibition of EphB4 after 1 hr
T3 sequence (P54760 whole entry): T1 sequence (whole entry)

[4] = biological target: Tyrosine-protein kinase ABL1 (Homo sapiens, UniProt P00519); assay: Inhibition of Abl1 after 1 hr
[5] = biological target: Tyrosine-protein kinase BTK (Homo sapiens, UniProt Q06187); assay: Inhibition of Btk after 1 hr
Ephrin type-A receptor 2 = Ephrin type-A receptor 2 (Homo sapiens, UniProt P29317); assay: Inhibition of EPHA2 after 1 hr
[6] = biological target: T4, Receptor-type tyrosine-protein kinase FLT3 (Homo sapiens, UniProt P36888); assay: Inhibition of Flt3 after 1 hr
T4 sequence (P36888 whole entry): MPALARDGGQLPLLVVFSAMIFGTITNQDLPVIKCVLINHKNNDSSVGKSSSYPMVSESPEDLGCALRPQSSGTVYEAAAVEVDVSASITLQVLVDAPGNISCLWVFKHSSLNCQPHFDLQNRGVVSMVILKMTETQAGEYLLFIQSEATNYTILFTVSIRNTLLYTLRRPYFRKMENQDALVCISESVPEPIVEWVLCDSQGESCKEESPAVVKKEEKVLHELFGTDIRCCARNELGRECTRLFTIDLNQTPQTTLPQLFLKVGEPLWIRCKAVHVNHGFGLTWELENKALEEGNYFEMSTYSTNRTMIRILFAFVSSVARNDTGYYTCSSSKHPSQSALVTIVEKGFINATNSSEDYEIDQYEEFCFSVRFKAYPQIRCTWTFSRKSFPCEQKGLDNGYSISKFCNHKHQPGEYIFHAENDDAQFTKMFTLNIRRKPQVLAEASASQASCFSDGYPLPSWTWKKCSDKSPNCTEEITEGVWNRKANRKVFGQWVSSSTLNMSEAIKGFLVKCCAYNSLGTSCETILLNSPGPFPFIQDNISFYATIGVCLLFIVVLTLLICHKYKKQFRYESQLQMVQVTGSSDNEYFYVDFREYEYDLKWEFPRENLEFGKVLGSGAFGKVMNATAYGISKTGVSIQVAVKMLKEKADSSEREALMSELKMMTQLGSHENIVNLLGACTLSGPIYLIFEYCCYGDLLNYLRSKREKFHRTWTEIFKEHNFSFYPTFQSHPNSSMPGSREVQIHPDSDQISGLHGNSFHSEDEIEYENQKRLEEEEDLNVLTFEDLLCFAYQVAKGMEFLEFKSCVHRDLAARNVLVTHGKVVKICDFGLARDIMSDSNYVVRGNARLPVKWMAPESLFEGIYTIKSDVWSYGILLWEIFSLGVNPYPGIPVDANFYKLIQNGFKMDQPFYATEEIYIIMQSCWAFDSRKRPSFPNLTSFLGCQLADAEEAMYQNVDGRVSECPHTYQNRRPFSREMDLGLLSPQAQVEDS

[7] = biological target: Tyrosine-protein kinase Lyn (Homo sapiens, UniProt P07948); assay: Inhibition of Lyn after 1 hr
[8] = biological target: Platelet-derived growth factor receptor beta (Homo sapiens, UniProt P09619); assay: Inhibition of PDGFRbeta after 1 hr
[9] = biological target: Vascular endothelial growth factor receptor 1 (Homo sapiens, UniProt P17948); assay: Inhibition of VEGFR1 after 1 hr
[10] = biological target: Vascular endothelial growth factor receptor 2 (Homo sapiens, UniProt P35968); assay: Inhibition of VEGFR2 after 1 hr
[11] = biological target: Vascular endothelial growth factor receptor 3 (Homo sapiens, UniProt P35916); assay: Inhibition of VEGFR3 after 1 hr
Sequence of Vascular endothelial growth factor receptor 3 (P35916 whole entry): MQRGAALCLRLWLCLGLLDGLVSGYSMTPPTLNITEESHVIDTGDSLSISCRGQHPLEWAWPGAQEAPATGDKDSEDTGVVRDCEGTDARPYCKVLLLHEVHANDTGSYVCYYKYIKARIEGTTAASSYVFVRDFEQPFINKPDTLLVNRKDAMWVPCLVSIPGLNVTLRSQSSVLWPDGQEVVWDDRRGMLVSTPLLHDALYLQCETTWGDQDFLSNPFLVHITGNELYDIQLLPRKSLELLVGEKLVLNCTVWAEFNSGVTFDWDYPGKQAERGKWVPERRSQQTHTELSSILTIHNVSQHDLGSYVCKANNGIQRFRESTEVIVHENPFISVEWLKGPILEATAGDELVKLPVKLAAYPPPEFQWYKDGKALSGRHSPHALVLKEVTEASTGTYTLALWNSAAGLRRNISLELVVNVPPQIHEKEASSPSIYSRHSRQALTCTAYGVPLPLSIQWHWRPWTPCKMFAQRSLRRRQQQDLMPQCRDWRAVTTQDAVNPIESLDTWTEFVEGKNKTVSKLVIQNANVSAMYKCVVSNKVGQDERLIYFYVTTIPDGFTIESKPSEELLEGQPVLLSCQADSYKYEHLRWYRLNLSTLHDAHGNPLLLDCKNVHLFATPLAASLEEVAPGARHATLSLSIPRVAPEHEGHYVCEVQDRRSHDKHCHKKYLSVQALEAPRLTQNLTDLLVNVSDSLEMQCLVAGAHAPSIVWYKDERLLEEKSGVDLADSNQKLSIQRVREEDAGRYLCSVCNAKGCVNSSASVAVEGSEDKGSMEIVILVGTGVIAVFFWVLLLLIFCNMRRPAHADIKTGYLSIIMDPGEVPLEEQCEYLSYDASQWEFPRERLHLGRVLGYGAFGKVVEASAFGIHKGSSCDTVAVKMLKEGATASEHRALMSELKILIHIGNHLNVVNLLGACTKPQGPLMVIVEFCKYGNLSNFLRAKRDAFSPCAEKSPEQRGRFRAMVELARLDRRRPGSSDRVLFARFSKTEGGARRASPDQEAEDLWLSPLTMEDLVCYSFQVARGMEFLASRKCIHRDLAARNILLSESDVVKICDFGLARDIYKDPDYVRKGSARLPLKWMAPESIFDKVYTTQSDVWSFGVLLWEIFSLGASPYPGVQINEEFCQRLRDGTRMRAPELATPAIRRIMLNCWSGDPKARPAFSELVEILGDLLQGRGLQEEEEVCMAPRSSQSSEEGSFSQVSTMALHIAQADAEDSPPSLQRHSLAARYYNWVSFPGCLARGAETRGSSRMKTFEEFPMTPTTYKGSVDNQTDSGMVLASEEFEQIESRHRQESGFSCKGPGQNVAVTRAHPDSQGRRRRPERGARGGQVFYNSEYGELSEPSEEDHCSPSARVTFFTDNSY

T2 sequence (Q02763 whole entry): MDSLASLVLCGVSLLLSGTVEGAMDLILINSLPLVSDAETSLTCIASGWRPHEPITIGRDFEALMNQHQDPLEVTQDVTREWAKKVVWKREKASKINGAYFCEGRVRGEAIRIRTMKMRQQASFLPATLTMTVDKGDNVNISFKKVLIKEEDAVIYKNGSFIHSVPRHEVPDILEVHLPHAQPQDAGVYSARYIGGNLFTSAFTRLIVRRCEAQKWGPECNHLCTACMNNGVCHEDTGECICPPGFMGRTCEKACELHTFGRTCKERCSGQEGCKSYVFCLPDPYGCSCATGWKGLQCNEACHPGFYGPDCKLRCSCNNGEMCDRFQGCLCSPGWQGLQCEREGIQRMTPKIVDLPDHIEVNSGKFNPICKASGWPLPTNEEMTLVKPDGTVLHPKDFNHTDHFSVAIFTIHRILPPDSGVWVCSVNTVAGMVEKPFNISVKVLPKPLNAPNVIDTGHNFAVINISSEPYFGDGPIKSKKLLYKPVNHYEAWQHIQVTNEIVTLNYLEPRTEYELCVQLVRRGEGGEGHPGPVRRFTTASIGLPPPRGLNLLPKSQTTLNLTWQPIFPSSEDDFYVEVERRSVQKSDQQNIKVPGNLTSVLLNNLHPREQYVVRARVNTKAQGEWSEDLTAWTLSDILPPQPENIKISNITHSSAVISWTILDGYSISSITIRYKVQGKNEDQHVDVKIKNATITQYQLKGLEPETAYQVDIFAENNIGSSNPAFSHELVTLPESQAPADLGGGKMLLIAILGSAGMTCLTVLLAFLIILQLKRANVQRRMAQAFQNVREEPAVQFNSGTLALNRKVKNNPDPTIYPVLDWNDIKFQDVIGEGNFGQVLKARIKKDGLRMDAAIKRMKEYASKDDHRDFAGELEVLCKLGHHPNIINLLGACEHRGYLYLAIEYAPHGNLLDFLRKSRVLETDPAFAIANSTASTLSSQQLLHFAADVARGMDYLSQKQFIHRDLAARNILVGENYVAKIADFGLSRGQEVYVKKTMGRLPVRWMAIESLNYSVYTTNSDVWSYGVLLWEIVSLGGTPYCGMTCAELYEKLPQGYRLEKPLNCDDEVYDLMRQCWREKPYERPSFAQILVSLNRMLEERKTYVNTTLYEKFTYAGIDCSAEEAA
Sequence of Tyrosine-protein kinase ABL1 (P00519 whole entry): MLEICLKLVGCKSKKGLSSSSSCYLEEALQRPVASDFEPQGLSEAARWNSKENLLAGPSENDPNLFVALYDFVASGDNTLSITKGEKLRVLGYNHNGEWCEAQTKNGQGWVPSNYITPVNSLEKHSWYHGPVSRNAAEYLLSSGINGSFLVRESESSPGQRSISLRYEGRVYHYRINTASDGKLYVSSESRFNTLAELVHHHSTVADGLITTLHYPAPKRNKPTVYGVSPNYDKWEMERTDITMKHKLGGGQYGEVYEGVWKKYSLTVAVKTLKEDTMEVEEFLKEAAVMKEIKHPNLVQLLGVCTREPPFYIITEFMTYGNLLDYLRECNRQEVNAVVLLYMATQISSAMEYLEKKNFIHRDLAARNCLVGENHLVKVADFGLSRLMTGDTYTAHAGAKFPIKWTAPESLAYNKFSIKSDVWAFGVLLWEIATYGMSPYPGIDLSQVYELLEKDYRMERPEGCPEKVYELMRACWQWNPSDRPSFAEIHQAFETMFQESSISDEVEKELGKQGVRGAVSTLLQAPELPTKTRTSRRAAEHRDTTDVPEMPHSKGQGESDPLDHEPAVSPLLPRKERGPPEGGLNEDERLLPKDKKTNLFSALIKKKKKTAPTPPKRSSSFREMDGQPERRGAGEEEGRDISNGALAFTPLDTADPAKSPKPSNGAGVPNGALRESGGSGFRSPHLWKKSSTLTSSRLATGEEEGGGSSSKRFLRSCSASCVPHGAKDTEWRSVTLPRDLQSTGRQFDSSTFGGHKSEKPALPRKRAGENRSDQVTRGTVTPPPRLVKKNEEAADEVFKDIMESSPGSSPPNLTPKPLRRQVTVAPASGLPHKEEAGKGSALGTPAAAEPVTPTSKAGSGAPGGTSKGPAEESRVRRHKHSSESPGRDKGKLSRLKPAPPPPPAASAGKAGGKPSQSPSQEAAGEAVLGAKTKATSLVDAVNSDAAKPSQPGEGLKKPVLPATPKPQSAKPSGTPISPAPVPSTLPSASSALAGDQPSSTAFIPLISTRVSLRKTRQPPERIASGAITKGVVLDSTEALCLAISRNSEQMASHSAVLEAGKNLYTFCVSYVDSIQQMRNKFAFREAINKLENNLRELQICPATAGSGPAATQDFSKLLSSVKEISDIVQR
Sequence of Tyrosine-protein kinase Lyn (P07948 whole entry): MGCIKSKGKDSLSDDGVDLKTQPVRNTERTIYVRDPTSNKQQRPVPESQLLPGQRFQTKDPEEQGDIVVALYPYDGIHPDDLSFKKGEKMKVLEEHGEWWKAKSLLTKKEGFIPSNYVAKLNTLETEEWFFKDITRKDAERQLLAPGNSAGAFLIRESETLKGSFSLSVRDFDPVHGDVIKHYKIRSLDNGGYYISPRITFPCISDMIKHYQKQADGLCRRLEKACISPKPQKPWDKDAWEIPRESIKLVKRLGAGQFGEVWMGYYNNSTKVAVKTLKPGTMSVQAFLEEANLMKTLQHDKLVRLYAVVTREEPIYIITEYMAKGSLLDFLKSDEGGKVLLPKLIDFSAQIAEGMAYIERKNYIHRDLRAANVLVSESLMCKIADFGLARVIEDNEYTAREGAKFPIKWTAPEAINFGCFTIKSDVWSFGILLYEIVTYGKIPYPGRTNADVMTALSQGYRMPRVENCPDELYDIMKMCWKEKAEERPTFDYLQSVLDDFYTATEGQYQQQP
Sequence of Ephrin type-A receptor 2 (P29317 whole entry): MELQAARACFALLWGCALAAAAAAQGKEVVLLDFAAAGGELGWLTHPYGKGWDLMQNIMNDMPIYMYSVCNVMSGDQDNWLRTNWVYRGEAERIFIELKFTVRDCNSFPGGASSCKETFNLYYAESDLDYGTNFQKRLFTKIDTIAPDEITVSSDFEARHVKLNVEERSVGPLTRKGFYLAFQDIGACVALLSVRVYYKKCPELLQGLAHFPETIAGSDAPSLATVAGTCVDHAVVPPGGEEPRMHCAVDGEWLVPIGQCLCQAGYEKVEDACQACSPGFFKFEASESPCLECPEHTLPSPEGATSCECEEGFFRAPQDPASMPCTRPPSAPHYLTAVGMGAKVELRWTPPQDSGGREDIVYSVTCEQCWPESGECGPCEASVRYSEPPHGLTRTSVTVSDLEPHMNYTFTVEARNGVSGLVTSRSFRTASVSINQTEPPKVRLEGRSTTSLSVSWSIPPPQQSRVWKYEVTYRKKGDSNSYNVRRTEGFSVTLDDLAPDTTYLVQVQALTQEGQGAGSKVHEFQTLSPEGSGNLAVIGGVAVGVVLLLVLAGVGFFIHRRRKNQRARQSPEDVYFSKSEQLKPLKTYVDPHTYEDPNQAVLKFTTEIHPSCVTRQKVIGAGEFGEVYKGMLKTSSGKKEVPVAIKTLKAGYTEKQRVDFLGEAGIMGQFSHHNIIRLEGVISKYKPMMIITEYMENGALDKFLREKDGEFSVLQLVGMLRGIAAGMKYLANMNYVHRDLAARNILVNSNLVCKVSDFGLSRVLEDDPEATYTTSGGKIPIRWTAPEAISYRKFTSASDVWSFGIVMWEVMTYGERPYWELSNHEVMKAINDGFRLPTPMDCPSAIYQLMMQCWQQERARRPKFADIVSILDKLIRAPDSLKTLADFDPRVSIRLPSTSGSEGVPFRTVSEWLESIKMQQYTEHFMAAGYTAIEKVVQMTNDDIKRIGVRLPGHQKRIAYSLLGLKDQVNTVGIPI

inhibition [1]: 36%
SMILES: O=C(Nc1cccc(-c2cn3ccnc3c(Nc3ccccc3)n2)c1)Nc1cccc(C(F)(F)F)c1

pIC50 (Ephrin type-B receptor 4): 7.21 | pIC50 [4]: 4.84 | pIC50 [5]: 5.11 | pIC50 (Ephrin type-A receptor 2): 7.46 | pIC50 [6]: 5.70 | pIC50 [7]: 5.22 | pIC50 [8]: 5.11 | pIC50 (Angiopoietin-1 receptor [2]): 7.17 | pIC50 [9]: 6.13 | pIC50 [10]: 7.48 | pIC50 [11]: 7.15
SMILES: O=C(Nc1cccc(-c2cn3ccnc3c(NCc3ccncc3)n2)c1)Nc1cccc(C(F)(F)F)c1

inhibition [1]: 32%
SMILES: O=C(Nc1cccc(-c2cn3ccnc3c(NCc3ccccn3)n2)c1)Nc1cccc(C(F)(F)F)c1

Continued, compound first:

SMILES: COc1ccc(Br)cc1NC(=O)Nc1cccc(-c2cn3ccnc3c(NCc3ccncc3)n2)c1
pIC50 (Angiopoietin-1 receptor [2]): 7.12 | pIC50 (Angiopoietin-1 receptor [3]): 6.60

SMILES: COc1ccc(C(F)(F)F)cc1NC(=O)Nc1cccc(-c2cn3ccnc3c(NCc3ccncc3)n2)c1
pIC50 (Angiopoietin-1 receptor [2]): 7.48 | pIC50 (Angiopoietin-1 receptor [3]): 7.30

SMILES: O=C(Nc1cccc(-c2cn3ccnc3c(NCc3ccncc3)n2)c1)Nc1cc(C(F)(F)F)ccc1F
pIC50 (Angiopoietin-1 receptor [2]): 7.43 | pIC50 (Angiopoietin-1 receptor [3]): 7.00
